Test results taken from patent EP2526945A1, “New CRTH2 Antagonists” (Almirall, S.A., priority 2011, dated 2012).

Biological target: T1, CRTh2 receptor (Homo sapiens, UniProt Q9Y5Y4)
T1 construct: expressed in transfected cells; host or cells: CHO.K1 cells (membranes)
T1 sequence (Q9Y5Y4 1-395): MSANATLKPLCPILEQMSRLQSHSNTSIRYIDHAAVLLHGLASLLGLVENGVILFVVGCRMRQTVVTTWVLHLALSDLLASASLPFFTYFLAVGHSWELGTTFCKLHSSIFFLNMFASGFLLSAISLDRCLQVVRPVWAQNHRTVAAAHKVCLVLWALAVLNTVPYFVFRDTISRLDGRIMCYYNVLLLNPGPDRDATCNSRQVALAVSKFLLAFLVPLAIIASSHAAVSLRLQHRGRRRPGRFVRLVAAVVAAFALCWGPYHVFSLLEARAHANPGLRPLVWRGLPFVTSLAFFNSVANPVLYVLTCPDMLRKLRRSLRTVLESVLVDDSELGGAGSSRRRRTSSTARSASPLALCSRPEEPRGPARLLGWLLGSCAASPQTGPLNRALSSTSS
Assay: CRTh2 GTPγS antagonism binding assay
Assay type: biochemical
Conditions: membranes from CHO.K1 cells stably overexpressing the CRTh2 receptor; PGD2 at 50 nM (EC80); [35S]-GTPγS as radioligand; read-out: GTPγ Binding
Experimental: CRTh2 GTPγS antagonism binding assay
The assay is performed using membranes obtained from CHO.K1 cells stably overexpressing the CRTh2 receptor and [^35S]-GTPγS as radioligand. Assay is performed pre-incubating 4-8 µg of membranes per well with the compound to be tested for 1 h, followed by incubation with PGD2 at 50 nM (EC80), 0.1 nM [^35S]-GTPγS in incubation buffer (20 mM HEPES, 10 mM MgCl2, 100 mM NaCl, 10 µM GDP, 10 µg/ml Saponine and 0.2% BSA) for 2 h at room temperature. The reaction is terminated by filtering in GF/C plates pre-treated with 20 mM HEPES, 10 mM MgCl2, 100 mM NaCl and washing 6 times with wash buffer (20 mM NaH2PO4, 20 mM Na2HPO4). After washing, plates are dried and scintillation buffer Optiphase added. The radioactivity retained in the filter is counted using a Microbeta liquid scintillation counter.

SMILES	IC50 [nM]
Cc1c(Cc2ccccc2S(=O)(=O)c2ccccc2)c2c(n1[C@H](C)C(=O)O)CCNC2=O [Example 20, (2R)-2-{2-Methyl-4-oxo-3-[2-(phenylsulfonyl)benzyl]-4,5,6,7-tetrahydro-1H-pyrrolo [3,2-c]pyridin-1-yl}propanoic acid]	9.2
CNC(=O)c1ccc(Cc2c3c(n(CC(=O)O)c2C)CCNC3=O)c(S(=O)(=O)c2ccccc2)c1 [Example 31, {2-Methyl-3-[4-[(methylamino)carbonyl]-2-(phenylsulfonyl)benzyl]-4-oxo-4,5,6,7-tetrahydro-1H-pyrrolo[3,2-c]pyridin-1-yl}acetic acid]	9.5
Cc1c(Cc2ccccc2S(=O)(=O)c2ccccc2)c2c(n1CC(=O)O)CCNC2=O [Example 2, {2-Methyl-4-oxo-3-[2-(phenylsulfonyl)benzyl]-4,5,6,7-tetrahydro-1H-pyrrolo[3,2-c]pyridin-1-yl}acetic acid]	4.6
Cc1c(Cc2ccccc2S(=O)(=O)c2ccccc2)c2c(n1CC(=O)O)CCN(C)C2=O [Example 27, {2,5-Dimethyl-4-oxo-3-[2-(phenylsulfonyl)benzyl]-4,5,6,7-tetrahydro-1H-pyrrolo[3,2-c]pyridin-1-yl}acetic acid]	5.4
Cc1c(Cc2ccccc2S(=O)(=O)c2ccc(OC(F)(F)F)cc2)c2c(n1CC(=O)O)CCNC2=O [Example 16, [2-Methyl-4-oxo-3-(2-{[4-(trifluoromethoxy)phenyl]sulfonyl}benzyl)-4,5,6,7-tetrahydro-1H-pyrrolo[3,2-c]pyridin-1-yl]acetic acid]	6.9
Cc1c(Cc2ccccc2S(=O)(=O)c2ccc(Cl)cc2)c2c(n1CC(=O)O)CCNC2=O [Example 14, (3-{2-[(4-Chlorophenyl)sulfonyl]benzyl}-2-methyl-4-oxo-4,5,6,7-tetrahydro-1H-pyrrolo[3,2-c]pyridin-1-yl)acetic acid]	8.4
COc1ccc(S(=O)(=O)c2ccccc2)c(Cc2c3c(n(CC(=O)O)c2C)CCNC3=O)c1 [Example 6, {3-[5-Methoxy-2-(phenylsulfonyl)benzyl]-2-methyl-4-oxo-4,5,6,7-tetrahydro-1H-pyrrolo[3,2-c]pyridin-1-yl}acetic acid]	3.6
Cc1c(Cc2ccccc2S(=O)(=O)c2ccccc2)c2c(n1CC(=O)O)CCN(Cc1ccccc1)C2=O [Example 36, {5-Benzyl-2-methyl-4-oxo-3-[2-(phenylsulfonyl)benzyl]-4,5,6,7-tetrahydro-1H-pyrrolo[3,2-c]pyridin-1-yl}acetic acid]	1.5
Cc1c(Cc2ccccc2S(=O)(=O)c2cccc(Cl)c2)c2c(n1CC(=O)O)CCNC2=O [Example 8, (3-{2-[(3-Chlorophenyl)sulfonyl]benzyl}-2-methyl-4-oxo-4,5,6,7-tetrahydro-1H-pyrrolo[3,2-c]pyridin-1-yl)acetic acid]	4
Cc1c(Cc2ccc(C(F)(F)F)cc2S(=O)(=O)c2ccccc2)c2c(n1CC(=O)O)CCNC2=O [Example 10, {2-Methyl-4-oxo-3-[2-(phenylsulfonyl)-4-(trifluoromethyl)benzyl]-4,5,6,7-tetrahydro-1H-pyrrolo[3,2-c]pyridin-1-yl}acetic acid]	13
Cc1c(Cc2cc(Br)ccc2S(=O)(=O)c2ccccc2)c2c(n1CC(=O)O)CCNC2=O [Example 42, {3-[5-Bromo-2-(phenylsulfonyl)benzyl]-2-methyl-4-oxo-4,5,6,7-tetrahydro-1H-pyrrolo[3,2-c]pyridin-1-yl}acetic acid]	3.9
COc1ccc(S(=O)(=O)c2ccc(F)cc2)c(Cc2c3c(n(CC(=O)O)c2C)CC(C)(C)NC3=O)c1 [Example 62, (3-{2-[(4-Fluorophenyl)sulfonyl]-5-methoxybenzyl}-2,6,6-trimethyl-4-oxo-4,5,6,7-tetrahydro-1H-pyrrolo[3,2-c]pyridin-1-yl)acetic acid]	4.8
Cc1c(Cc2cccn2S(=O)(=O)c2ccccc2)c2c(n1CC(=O)O)CCNC2=O [Example 44, (2-Methyl-4-oxo-3-{[1-(phenylsulfonyl)-1H-pyrrol-2-yl]methyl}-4,5,6,7-tetrahydro-1 H-pyrrolo[3,2-c]pyridin-1-yl)acetic acid]	5.9
